Experiments:
Mus musculus = species on record: Mus musculus; test: Inhibitory potency was evaluated using electrically induced smooth muscle contractions of mouse vas deferens (MVD).; format: functional, organism-based
Cavia porcellus = species on record: Cavia porcellus; test: Inhibitory potency was evaluated using strips of guinea pig ileum (GPI) longitudinal muscle-myenteric plexus.; format: functional, organism-based

Row | Structure (SMILES) | IC50 (Mus musculus) [nM] | IC50 (Cavia porcellus) [nM]
1 | CC1(C)SSC(C)(C)[C@@H](NC(=O)[C@@H](N)Cc2ccc(O)cc2)C(=O)NCC(=O)N[C@@H](Cc2ccc(I)cc2)C(=O)N[C@H]1C(=O)O | 2.65 | 46100
2 | CC1(C)SSC(C)(C)[C@@H](NC(=O)[C@@H](N)Cc2ccc(O)cc2)C(=O)NCC(=O)N[C@@H](Cc2ccc(Br)cc2)C(=O)N[C@H]1C(=O)O | 1.5 | 13400
3 | CC1(C)SSC(C)(C)[C@@H](NC(=O)[C@@H](N)Cc2ccc(O)cc2)C(=O)NCC(=O)N[C@@H](Cc2ccc(Cl)cc2)C(=O)N[C@H]1C(=O)O | 0.89 | 4830
4 | CC1(C)SSC(C)(C)[C@@H](NC(=O)[C@@H](N)Cc2ccc(O)cc2)C(=O)NCC(=O)N[C@@H](Cc2ccc(F)cc2)C(=O)N[C@H]1C(=O)O | 0.84 | 5030
